Assay results from patent US20130296417A1, “Theaflavin Compositions, Production, and Method to Control Physiological Disorders in Mammals” (JANGSU DEHE BIO-TECH CO., LTD., priority 2010, published 2013).

Tested on: Madin-Darby canine kidney (MDCK) cells
Experiment: Cytotoxicity (CC50) in MDCK cells (Example II)

SMILES: O=C(O[C@@H]1Cc2c(O)cc(O)cc2O[C@@H]1c1cc(O)c(O)c(O)c1)c1cc(O)c(O)c(O)c1 [EGCG, (−)-epigallocatechin-3-gallate]
- CC50: >100 µg/mL
